Test results from patent US12492173B2, “Herbicidal substituted N-tetrazolyl aryl carboxamides” (Bayer Aktiengesellschaft, priority 2019, dated 2025).

How the values were obtained:
Format in all cases: in vivo
Abutilon theophrasti [1] = test: Post-emergence herbicidal action, ABUTH; design: key: % herbicidal action vs untreated; 100 = plants died, 0 = like control; details: for herbicidal action ABUTH: Dosage 80 g/ha
Method in brief: (§1)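 Greenhouse post-emergence test: weeds sown in sandy loam were sprayed once at one leaf, 2 to 3 weeks from sowing, with aqueous WP or EC preparations carrying 0.2% wetting agent. Effect is scored visually after about 3 weeks.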

Veronica persica [2] = test: Pre-emergence herbicidal action, VERPE; details: dosage 320 g/ha
Method in brief: (§2)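 Sown pots (sandy loam) sprayed pre-emergence → greenhouse → visual rating at 3 weeks; % activity vs untreated control, 100% = dead.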

Cyperus esculentus = test: Post-emergence herbicidal action, CYPES; design: key: % herbicidal action vs untreated; 100 = plants died, 0 = like control; details: Dosage 80 g/ha
Description: (§3) [table] 2. Post-Emergence Herbicidal Action Against Harmful Plants Seeds of monocotyledonous and dicotyledonous weed and crop plants are laid out in sandy loam soil in wood-fiber pots, covered with soil and cultivated in a greenhouse under good growth conditions. 2 to 3 weeks after sowing, the test plants are treated at the one-leaf stage. The compounds of the invention, formulated in the form of wettable powders (WP) or as emulsion concentrates (EC), are then sprayed onto the green parts of the plants in the form of an aqueous suspension or emulsion at a water application rate equating to 600 to 800 l/ha, with addition of 0.2% wetting agent. After the test plants have been left to stand in the greenhouse under optimal growth conditions for about 3 weeks, the action of the preparations is assessed visually in comparison to untreated controls (herbicidal action in percent (%): 100% activity=the plants have died, 0% activity=like control plants). […] The tables below illustrate, in an exemplary manner, the post-emergence herbicidal action of the compounds according to the invention, the herbicidal activity being stated in percent. In the experiments that follow, herbicidal action of numerous inventive compounds and the known compounds that are structurally closest from D1 (WO 2012/028579 A1) and D2 (WO 2018/202535 A1) were compared under the above-specified conditions by the pre-emergence and post-emergence method. The example numbers given in the tables relate to the compounds disclosed in the respective documents. In addition to the compounds disclosed in D1 and D2, the following compounds V-1 to V-14 that are encompassed by D1 or D2 but are not compounds specified therein were used in the comparative experiments: • V-1: 2-(methylsulfanyl)-3-(methylsulfinyl)-N-(1-methyl-1H-tetrazol-5-yl)-4-(trifluoromethyl)benzamide • V-2: 2-(methylsulfanyl)-3-(methylsulfonyl)-N-(1-methyl-1H-tetrazol-5-yl)-4-(trifluoromethyl)benzamide • V-3: 2,3-bis(ethylsulfanyl)-N-(1-methyl-1H-tetrazol-5-yl)-4-(trifluoromethyl)benzamide • V-4: 2-chloro-3-(ethylsulfanyl)-N-(1-methyl-1H-tetrazol-5-yl)-4-(trifluoromethyl)benzamide • V-5: 2-chloro-4-iodo-3-(methylsulfanyl)-N-(1-methyl-1H-tetrazol-5-yl)benzamide • V-6: 2-chloro-4-iodo-3-(methylsulfinyl)-N-(1-methyl-1H-tetrazol-5-yl)benzamide • V-7: 2-chloro-4-iodo-3-(methylsulfonyl)-N-(1-methyl-1H-tetrazol-5-yl)benzamide • V-8: 2-bromo-3-(methylsulfanyl)-N-(1-methyl-1H-tetrazol-5-yl)-4-(trifluoromethyl)benzamide • V-9: 2-bromo-3-(methylsulfinyl)-N-(1-methyl-1H-tetrazol-5-yl)-4-(trifluoromethyl)benzamide • V-10: 2-bromo-3-(methylsulfonyl)-N-(1-methyl-1H-tetrazol-5-yl)-4-(trifluoromethyl)benzamide • V-11: 2-bromo-3-(ethylsulfanyl)-N-(1-methyl-1H-tetrazol-5-yl)-4-(trifluoromethyl)benzamide • V-12: 2-bromo-3-(ethylsulfinyl)-N-(1-methyl-1H-tetrazol-5-yl)-4-(trifluoromethyl)benzamide • V-13: 2-bromo-3-(ethylsulfonyl)-N-(1-methyl-1-1H-tetrazol-5-yl)-4-(trifluoromethyl)benzamide • V-14: 2-cyclopropyl-3-(ethylsulfanyl)-N-(1-methyl-1H-tetrazol-5-yl)-4-(trifluoromethyl)benzamide Herbicidal Pre-Emergence Action: […]

Matricaria inodora [3] = test: Post-emergence herbicidal action, MATIN; design: key: % herbicidal action vs untreated; 100 = plants died, 0 = like control; details: for herbicidal action MATIN: Dosage 80 g/ha
Method in brief: as §1

Setaria viridis [4] = test: Post-emergence herbicidal action, SETVI; design: key: % herbicidal action vs untreated; 100 = plants died, 0 = like control; details: Dosage 80 g/ha
Method in brief: as §1

Amaranthus retroflexus [5] = test: Post-emergence herbicidal action, AMARE; design: key: % herbicidal action vs untreated; 100 = plants died, 0 = like control; details: for herbicidal action AMARE: Dosage 80 g/ha; for Herbicidal action against AMARE: post-emergence, dosage 80 g/ha
Method in brief: as §1

Amaranthus retroflexus [6] = test: Pre-emergence herbicidal action, AMARE; details: dosage 320 g/ha
Method in brief: as §2

Alopecurus myosuroides = test: Post-emergence herbicidal action, ALOMY; design: key: % herbicidal action vs untreated; 100 = plants died, 0 = like control; details: Dosage 80 g/ha
Description: as §3

Stellaria media [7] = test: Pre-emergence herbicidal action, STEME; details: dosage 320 g/ha
Method in brief: as §2

Echinochloa crus-galli [8] = test: Post-emergence herbicidal action, ECHCG; design: key: % herbicidal action vs untreated; 100 = plants died, 0 = like control; details: for herbicidal action ECHCG: Dosage 80 g/ha; for Herbicidal action against ECHCG: post-emergence, dosage 80 g/ha
Method in brief: as §1

Veronica persica [9] = test: Post-emergence herbicidal action, VERPE; design: key: % herbicidal action vs untreated; 100 = plants died, 0 = like control; details: for herbicidal action VERPE: Dosage 80 g/ha
Method in brief: as §1

Stellaria media [10] = test: Post-emergence herbicidal action, STEME; design: key: % herbicidal action vs untreated; 100 = plants died, 0 = like control; details: for herbicidal action STEME: Dosage 80 g/ha; for Herbicidal action against STEME: post-emergence, dosage 80 g/ha
Method in brief: as §1

Echinochloa crus-galli [11] = test: Pre-emergence herbicidal action, ECHCG; details: dosage 320 g/ha
Method in brief: as §2

Pharbitis purpurea [12] = test: Post-emergence herbicidal action, PHBPU; details: for herbicidal action PHBPU: Dosage 80 g/ha; for Herbicidal action against PHBPU: post-emergence, dosage 80 g/ha
Method in brief: as §1

Viola tricolor [13] = test: Post-emergence herbicidal action, VIOTR; design: key: % herbicidal action vs untreated; 100 = plants died, 0 = like control; details: for herbicidal action VIOTR: Dosage 80 g/ha; for Herbicidal action against VIOTR: post-emergence, dosage 80 g/ha
Method in brief: as §1

Pharbitis purpurea [14] = test: Pre-emergence herbicidal action, PHBPU
Description: (§4) 1. Pre-Emergence Herbicidal Action Against Harmful Plants Seeds of monocotyledonous and dicotyledonous weed plants and crop plants are laid out in sandy loam soil in wood-fiber pots and covered with soil. The compounds of the invention, formulated in the form of wettable powders (WP) or as emulsion concentrates (EC), are then applied to the surface of the covering soil in the form of an aqueous suspension or emulsion at a water application rate equating to 600 to 800 l/ha, with addition of 0.2% wetting agent. After the treatment, the pots are placed in a greenhouse and kept under good growth conditions for the trial plants. The damage to the test plants is scored visually after a test period of 3 weeks by comparison with untreated controls (herbicidal activity in percent (%): 100% activity=the plants have died, 0% activity=like control plants). […] The tables below illustrate, in an exemplary manner, the […] herbicidal action of the compounds according to the invention, the herbicidal activity being stated in percent. [table] In the experiments that follow, herbicidal action of numerous inventive compounds and the known compounds that are structurally closest from D1 (WO 2012/028579 A1) and D2 (WO 2018/202535 A1) were compared under the above-specified conditions by the pre-emergence and post-emergence method. The example numbers given in the tables relate to the compounds disclosed in the respective documents. In addition to the compounds disclosed in D1 and D2, the following compounds V-1 to V-14 that are encompassed by D1 or D2 but are not compounds specified therein were used in the comparative experiments: • V-1: 2-(methylsulfanyl)-3-(methylsulfinyl)-N-(1-methyl-1H-tetrazol-5-yl)-4-(trifluoromethyl)benzamide • V-2: 2-(methylsulfanyl)-3-(methylsulfonyl)-N-(1-methyl-1H-tetrazol-5-yl)-4-(trifluoromethyl)benzamide • V-3: 2,3-bis(ethylsulfanyl)-N-(1-methyl-1H-tetrazol-5-yl)-4-(trifluoromethyl)benzamide • V-4: 2-chloro-3-(ethylsulfanyl)-N-(1-methyl-1H-tetrazol-5-yl)-4-(trifluoromethyl)benzamide • V-5: 2-chloro-4-iodo-3-(methylsulfanyl)-N-(1-methyl-1H-tetrazol-5-yl)benzamide • V-6: 2-chloro-4-iodo-3-(methylsulfinyl)-N-(1-methyl-1H-tetrazol-5-yl)benzamide • V-7: 2-chloro-4-iodo-3-(methylsulfonyl)-N-(1-methyl-1H-tetrazol-5-yl)benzamide • V-8: 2-bromo-3-(methylsulfanyl)-N-(1-methyl-1H-tetrazol-5-yl)-4-(trifluoromethyl)benzamide • V-9: 2-bromo-3-(methylsulfinyl)-N-(1-methyl-1H-tetrazol-5-yl)-4-(trifluoromethyl)benzamide • V-10: 2-bromo-3-(methylsulfonyl)-N-(1-methyl-1H-tetrazol-5-yl)-4-(trifluoromethyl)benzamide • V-11: 2-bromo-3-(ethylsulfanyl)-N-(1-methyl-1H-tetrazol-5-yl)-4-(trifluoromethyl)benzamide • V-12: 2-bromo-3-(ethylsulfinyl)-N-(1-methyl-1H-tetrazol-5-yl)-4-(trifluoromethyl)benzamide • V-13: 2-bromo-3-(ethylsulfonyl)-N-(1-methyl-1-1H-tetrazol-5-yl)-4-(trifluoromethyl)benzamide • V-14: 2-cyclopropyl-3-(ethylsulfanyl)-N-(1-methyl-1H-tetrazol-5-yl)-4-(trifluoromethyl)benzamide Herbicidal Pre-Emergence Action: […]

Matricaria inodora [15] = test: Pre-emergence herbicidal action, MATIN; details: dosage 320 g/ha
Method in brief: as §2

Abutilon theophrasti [16] = test: Pre-emergence herbicidal action, ABUTH; details: dosage 320 g/ha
Method in brief: as §2

Polygonum convolvulus [17] = test: Pre-emergence herbicidal action, POLCO; details: dosage 320 g/ha, scored visually after 3 weeks vs untreated controls (100% = plants have died)
Description: as §4

Setaria viridis [18] = test: Pre-emergence herbicidal action, SETVI; details: dosage 320 g/ha, scored visually after 3 weeks vs untreated controls (100% = plants have died)
Description: as §4

Viola tricolor [19] = test: Pre-emergence herbicidal action, VIOTR; details: dosage 320 g/ha
Method in brief: as §2

Polygonum convolvulus [20] = test: Post-emergence herbicidal action, POLCO; details: Dosage 80 g/ha
Description: as §3

[21] = scored visually after 3 weeks vs untreated controls (100% = plants have died)

| SMILES | herbicidal action ABUTH (Abutilon theophrasti [1]) | herbicidal action VERPE (Veronica persica [2]) [%] | herbicidal action CYPES (Cyperus esculentus) | herbicidal action MATIN (Matricaria inodora [3]) | herbicidal action SETVI (Setaria viridis [4]) | herbicidal action AMARE (Amaranthus retroflexus [5]) | herbicidal action AMARE (Amaranthus retroflexus [6]) [%] | herbicidal action ALOMY (Alopecurus myosuroides) | herbicidal action STEME (Stellaria media [7]) [%] | herbicidal action ECHCG (Echinochloa crus-galli [8]) | herbicidal action VERPE (Veronica persica [9]) | herbicidal action STEME (Stellaria media [10]) | herbicidal action ECHCG (Echinochloa crus-galli [11]) [%] | herbicidal action PHBPU (Pharbitis purpurea [12]) | herbicidal action VIOTR (Viola tricolor [13]) | Herbicidal action against AMARE (Amaranthus retroflexus [5]) | Herbicidal action against ECHCG (Echinochloa crus-galli [8]) | Herbicidal action against STEME (Stellaria media [10]) | Herbicidal action against PHBPU (Pharbitis purpurea [12]) | herbicidal action MATIN (Matricaria inodora [15]) [%] | also measured |
| --- | --- | --- | --- | --- | --- | --- | --- | --- | --- | --- | --- | --- | --- | --- | --- | --- | --- | --- | --- | --- | --- |
| CCn1nnnc1NC(=O)c1ccc(S(C)(=O)=O)c(CSC)c1C [Example 2-37] | 80 | 100 | 80 | 80 | 100 | 90 | 100 | 80 | 90 | 100 | 100 | 100 | 90 | 80 | 100 |  |  |  |  |  |  |
| CCSCc1c(C(F)(F)F)ccc(C(=O)Nc2nnnn2C)c1C1CC1 [Example 1-517] |  |  |  |  |  |  |  |  |  |  |  |  |  |  |  |  |  |  |  |  | Herbicidal action against PHBPU (Pharbitis purpurea [14]; comparative experiment, 20 g of a.i./ha): 60 |
| Cn1nnnc1NC(=O)c1ccc(S(C)(=O)=O)c(CS(C)(=O)=O)c1Cl [Example 1-280] |  |  |  |  |  |  |  |  |  |  |  |  |  |  |  | 90 | 90 | 100 | 90 |  | herbicidal activity VERPE (Veronica persica [2]; [21]): 100%; herbicidal activity PHBPU (Pharbitis purpurea [14]; dosage 320 g/ha, scored visually after 3 weeks vs untreated controls (100% = plants have died)): 80%; herbicidal activity AMARE (Amaranthus retroflexus [6]; [21]): 100%; herbicidal activity STEME (Stellaria media [7]; [21]): 90%; herbicidal activity MATIN (Matricaria inodora [15]; [21]): 90%; herbicidal activity ABUTH (Abutilon theophrasti [16]; [21]): 90%; herbicidal activity POLCO (Polygonum convolvulus [17]): 80%; herbicidal activity SETVI (Setaria viridis [18]): 80%; herbicidal activity VIOTR (Viola tricolor [19]; [21]): 90%; herbicidal activity ECHCG (Echinochloa crus-galli [11]; [21]): 100%; Herbicidal action against VIOTR (Viola tricolor [13]): 90 |
| Cc1c(C(=O)Nc2nnnn2C)ccc(S(C)(=O)=O)c1CS(C)(=O)=O [Example 1-39] | 90 | 90 | 80 | 90 | 90 | 90 | 100 |  |  | 80 | 90 | 80 |  | 80 | 90 |  |  |  |  | 100 |  |
| CCn1nnnc1NC(=O)c1ccc(C)c(C[S+](C)[O-])c1Cl (stereo not drawn) [Example 2-288] | 90 | 100 |  | 90 | 90 | 100 | 100 | 80 | 90 | 90 | 100 | 100 | 100 | 90 | 80 |  |  |  |  | 90 | herbicidal action POLCO (Polygonum convolvulus [20]): 90 |
| CCCn1nnnc1NC(=O)c1ccc(C(F)(F)F)c(CS(C)(=O)=O)c1S(C)(=O)=O [Example 3-199] |  | 100 |  |  |  |  | 90 |  | 80 |  |  |  |  |  |  | 80 | 80 | 80 | 90 | 100 | Herbicidal action against ABUTH (Abutilon theophrasti [1]; post-emergence, dosage 80 g/ha): 90; herbicidal action PHBPU (Pharbitis purpurea [14]; dosage 320 g/ha): 80%; Herbicidal action against MATIN (Matricaria inodora [3]; post-emergence, dosage 80 g/ha): 80; herbicidal action ABUTH (Abutilon theophrasti [16]): 100%; herbicidal action VIOTR (Viola tricolor [19]): 100%; Herbicidal action against VERPE (Veronica persica [9]; post-emergence, dosage 80 g/ha): 100; Herbicidal action against VIOTR (Viola tricolor [13]): 90 |
